We go through 23 compounds from patent publication US20240067651A1 (Biohaven Therapeutics Ltd., priority 2019, published 2024).

A short description of data set [1]: Stability in Simulated Intestinal Fluid (SIF). In kind it is in vitro ADME. Details: key: % parent compound remaining relative to 0-minute sample. An outline of the steps: (§1)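 LC-MS/MS read-out of intact compound (2 μg/mL final) over 60 minutes at 37° C; gastric medium pH 1.2 with pepsin, intestinal medium pH 6.8 with pancreatin. Half-life from ln(% remaining) against time.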

The nature of another data set: Plasma Stability. It is filed as in vitro ADME, human. An outline of the steps:
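Parent compound quantified by LC-MS/MS after acetonitrile precipitation, reported as percent of control remaining (triplicate). Incubation: 1 hour, 37° C, fresh human plasma, compound at 1 μM.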

A short description of data set [2]: Stability in Simulated Gastric Fluid (SGF). Details: key: % parent compound remaining relative to 0-minute sample. In kind it is in vitro ADME. An outline of the steps: as §1
Data set [3] can be described thus: Caco-2 Permeability Assay. In kind it is in vitro ADME, human. As to conditions: human. The method in brief:
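Bidirectional transport at 37 °C for 90 min, 10 μM donor concentration, with or without Pgp inhibitor, across 21-day Caco-2 monolayers with TEER >600 […] in HEPES-buffered HBSS, pH 7.4. LC-MS/MS of donor and receiver samples gives Papp, B→A/A→B efflux ratio and mass recovery.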
In general terms: Passage across Caco-2 layers is used to estimate intestinal permeability.

The mark [4] stands for this setting: % @ 1 h (remaining) in simulated intestinal fluid.
Setting [5] is: % @ 1 h (remaining) in human plasma.
The mark [6] stands for this setting: % @ 1 h (remaining) in simulated gastric fluid.
Where [7] appears, read: Caco-2, pH 7.4, Caco-2 monolayer.
The mark [8] stands for this setting: % remaining at 1 h, SIF with pancreatin pH 6.8, 2 μg/mL, 37° C.
[9] abbreviates: % remaining at 1 h, human plasma, 1 μM, 37° C.
[10] abbreviates: % remaining at 1 h, SGF with pepsin pH 1.2, 2 μg/mL, 37° C.
Where [11] appears, read: Caco-2, pH 7.4, donor 10 μM, 90 minutes, 37° C., direction not given.
[12] abbreviates: % remaining at 1 h in simulated intestinal fluid, the 15th table.
Setting [13] is: % remaining at 1 h in human plasma, the 15th table.
Setting [14] is: % remaining at 1 h in simulated gastric fluid, the 15th table.
Setting [15] is: Caco-2, pH 7.4, Caco-2 monolayer, the 15th table.
[16] abbreviates: bare number, unit or time not given, the 15th table Examples 204-207.

Turning to `C=CCCN(C)C(=O)OCSc1nc(=O)c2[nH]ccc2n1CCOC(C)C.O=C(O)C(F)(F)F` [Example 179], in data set [1] (setting [4]), the SIF is 91% @ 1 h. Besides, in “Plasma Stability” (setting [5]), the “human Plasma stability” value amounted to 99% @ 1 h. The SGF in data set [2] (setting [6]) was 95% @ 1 h. The compound further came in with a Papp at 90 min, 10 µM in data set [3] (setting [7]) of 14.5 ×10⁻⁶ cm/s.
The like results for `C=CCCN(C)C(=O)OCSc1nc(=O)c2c(ccn2COC(=O)N(C)CCC=C)n1CCOC(C)C.O=C(O)C(F)(F)F` [Example 180] were, in that order, 82% @ 1 h, 99% @ 1 h, 99% @ 1 h and 25.9 ×10⁻⁶ cm/s.
For `CC(C)OCCn1c(=S)[nH]c(=O)c2c1ccn2COC(N)=O` [Example 181, Carbamic acid 1-(2-isopropoxy-ethyl)-4-oxo-2-thioxo-1,2,3,4-tetrahydro-pyrrolo[3,2-d]pyrimidin-5-ylmethyl ester], the SIF in data set [1] (setting [8]) is reported as 97%. Moreover, the “human Plasma stability” value in the data set “Plasma Stability” (setting [9]) was determined as 99%. Moreover, the SGF in data set [2] (setting [10]) was 82%. In data set [3] (setting [11]), this compound had a Papp at 90 min, 10 µM of 21.8 ×10⁻⁶ cm/s.
Consider `CCCNC(=O)OCSc1nc(=O)c2c(ccn2COC(=O)NCCC)n1CCOC(C)C` [Example 183], for which the SIF in data set [1] (setting [12]) is recorded as 99% @ 1 h. In the data set “Plasma Stability” (setting [13]), the “human Plasma stability” value is on record as 92% @ 1 h. The SGF in data set [2] (setting [14]) is on record as 94% @ 1 h. The compound further showed a Papp at 90 min, 10 µM in data set [3] (setting [15]) of 4.59 ×10⁻⁶ cm/s.
The corresponding values for `CC(C)CNC(=O)OCSc1nc(=O)c2[nH]ccc2n1CCOC(C)C` [Example 186] are 100% @ 1 h, 98% @ 1 h, 86% @ 1 h and 7.23 ×10⁻⁶ cm/s.
The like results for `CC(C)CNC(=O)OCSc1nc(=O)c2c(ccn2C(=O)NCC(C)C)n1CCOC(C)C` [Example 187] were, in that order, 97% @ 1 h, 96% @ 1 h, 97% @ 1 h and 33.1 ×10⁻⁶ cm/s.
The like results for `CC(C)CNC(=O)OCSc1nc(=O)c2c(ccn2COC(=O)NCC(C)C)n1CCOC(C)C` [Example 188] were, in that order, 97% @ 1 h, 99% @ 1 h, 98% @ 1 h and 11.7 ×10⁻⁶ cm/s.
For the compound `CCN(C(=O)OCSc1nc(=O)c2c(ccn2COC(=O)N(CC)C(C)C)n1CCOC(C)C)C(C)C` [Example 189], the SIF in data set [1] (setting [12]) is listed as 97% @ 1 h. For the same compound, the “human Plasma stability” value in the data set “Plasma Stability” (setting [13]) is recorded as 98% @ 1 h. Further, the SGF in data set [2] (setting [14]) is listed as 99% @ 1 h. The apparent permeability coefficient (Papp) at 90 min, 10 µM in data set [3] (setting [15]) turned out to be 30.6 ×10⁻⁶ cm/s.
Consider `CCN(C(=O)OCSc1nc(=O)c2[nH]ccc2n1CCOC(C)C)C(C)C` [Example 190], for which the SIF in data set [1] (setting [12]) was 98% @ 1 h. Also, the “human Plasma stability” value in “Plasma Stability” (setting [13]) amounted to 99% @ 1 h. Further, the SGF in data set [2] (setting [14]) was 99% @ 1 h. This compound had a Papp at 90 min, 10 µM in data set [3] (setting [15]) of 13.8 ×10⁻⁶ cm/s.
For `CC(C)OCCn1c(=S)[nH]c(=O)c2c1ccn2C(=O)OC(C)(C)C` [Example 191], the SIF in data set [1] (setting [12]) is given as 82% @ 1 h. Besides, the “human Plasma stability” value in the data set “Plasma Stability” (setting [13]) turned out to be 16% @ 1 h. For the same compound, in data set [2] (setting [14]), the SGF is recorded as 15% @ 1 h. In data set [3] (setting [15]), this compound had a Papp at 90 min, 10 µM of 1.08 ×10⁻⁶ cm/s.
The like results for `CC(C)OCCn1c(SCOC(=O)NCc2ccccc2)nc(=O)c2[nH]ccc21` [Example 192] were, in that order, 50% remaining, 97% remaining, 100% remaining and 3.84 ×10⁻⁶ cm/s.
The corresponding values for `CC(C)OCCn1c(SCOC(=O)NCc2ccccc2)nc(=O)c2c1ccn2C(=O)NCc1ccccc1` [Example 193] are 57% remaining, 95% remaining, 98% remaining and 31.6 ×10⁻⁶ cm/s.
The corresponding values for `CCCCNC(=O)OCSc1nc(=O)c2c(ccn2C(=O)NCCCC)n1CCOC(C)C` [Example 194] are 59% remaining, 97% remaining, 99% remaining and 42.9 ×10⁻⁶ cm/s.
As to `CC(C)NC(=O)OCSc1nc(=O)c2c(ccn2C(=O)NC(C)C)n1CCOC(C)C` [Example 195], the SIF in data set [1] (setting [12]) is on record as 99% remaining. Also, the “human Plasma stability” value in the data set “Plasma Stability” (setting [13]) came to 97% remaining. Also, the SGF in data set [2] (setting [14]) is reported as 100% remaining. The apparent permeability (Papp) at 90 min, 10 µM in data set [3] (setting [15]) worked out at 30 ×10⁻⁶ cm/s.
The corresponding values for `CC(C)NC(=O)OCSc1nc(=O)c2[nH]ccc2n1CCOC(C)C` [Example 196] are 98% remaining, 99% remaining, 99% remaining and 19.5 ×10⁻⁶ cm/s.
The like results for `COC(=O)OCSc1nc(=O)c2c(ccn2COC(=O)OC)n1CCOC(C)C` [Example 198] were, in that order, 74% remaining, 0% remaining, 79% remaining and 11.4 ×10⁻⁶ cm/s.
The like results for `COC(=O)OCSc1nc(=O)c2c(ccn2CSc2nc(=O)c3[nH]ccc3n2CCOC(C)C)n1CCOC(C)C` [Example 199] were, in that order, 79% remaining, 46% remaining, 47% remaining and 5.54 ×10⁻⁶ cm/s.
With `COC(=O)OCSc1nc(=O)c2[nH]ccc2n1CCOC(C)C` [Example 200], in data set [1] (setting [12]), the SIF is listed as 75% remaining. Further, the “human Plasma stability” value in the data set “Plasma Stability” (setting [13]) came out at 2% remaining. The SGF in data set [2] (setting [14]) is 100% remaining. Moreover, the apparent permeability (Papp) at 90 min, 10 µM in data set [3] (setting [15]) turned out to be 9.76 ×10⁻⁶ cm/s.
As for `CC(C)OCCn1c(SCOC(=O)OC(C)C)nc(=O)c2[nH]ccc21` [Example 203], the SIF in data set [1] (setting [12]) was 63% remaining. The “human Plasma stability” value in the data set “Plasma Stability” (setting [13]) amounted to 1% remaining. In addition, in data set [2] (setting [14]), the SGF is reported as 99% remaining. This compound also returned a Papp at 90 min, 10 µM in data set [3] (setting [15]) of 13.4 ×10⁻⁶ cm/s.
For `CCCCOC(=O)OCSc1nc(=O)c2[nH]ccc2n1CCOC(C)C` [Example 204], in data set [1] (setting [16]), the SIF was 2. Also, the “human Plasma stability” value in the data set “Plasma Stability” (setting [13]) is 1% remaining. For the same compound, in data set [2] (setting [16]), the SGF is reported as 85. In data set [3] (setting [15]), the Papp at 90 min, 10 µM amounted to 6.35 ×10⁻⁶ cm/s.
The corresponding values for `CCCCCCCCOC(=O)OCSc1nc(=O)c2[nH]ccc2n1CCOC(C)C` [Example 206] are 1, 99% remaining, 91 and 0.138 ×10⁻⁶ cm/s.
Turning to `CC(C)OCCn1c(SC(C)OC(=O)N(C(C)C)C(C)C)nc(=O)c2[nH]ccc21` (centres unmarked) [Example 208, 1-({4-Oxo-1-[2-(propan-2-yloxy)ethyl]-1H,4H,5H-pyrrolo[3,2-d]pyrimidin-2-yl}sulfanyl)ethyl N,N-bis(propan-2-yl)carbamate], the SIF in data set [1] (setting [8]) is listed as 93%. In the data set “Plasma Stability” (setting [9]), the “human Plasma stability” value was found to be 98%. The SGF in data set [2] (setting [10]) is 1%. In addition, in data set [3] (setting [11]), the Papp at 90 min, 10 µM is 18.3 ×10⁻⁶ cm/s.
The corresponding values for `CC(C)OCCn1c(SCOC(=O)N(C)c2ccccc2)nc(=O)c2[nH]ccc21` [Example 209, ({4-oxo-1-[2-(propan-2-yloxy)ethyl]-1H,4H,5H-pyrrolo[3,2-d]pyrimidin-2-yl}sulfanyl)methyl N-methyl-N-phenylcarbamate] are 99% remaining, 97% remaining, 99% remaining and 16.1 ×10⁻⁶ cm/s.

Broadly, the Papp is the rate of passage across a membrane or cell layer, normalised by area and donor concentration.
